Read-outs that look alike come from different tables or passages of the source. Marks after values point to notes of the source that are not given here.
What was measured:
hARH3 [1] = target: T1, hARH3 (Homo sapiens, UniProt Q9NX46); experiment: Differential scanning fluorimetry (DSF) with metal salts, MgII-depleted enzyme; type: binding; settings: for TM / ΔTM: 100 μM metal salt; for TM: n = 3; for ΔTM: ΔTM = TM (salt) - TM (apo)
T1 construct: made in house; host or cells: E. coli Rosetta (DE3)
T1 sequence (Q9NX46 1-363): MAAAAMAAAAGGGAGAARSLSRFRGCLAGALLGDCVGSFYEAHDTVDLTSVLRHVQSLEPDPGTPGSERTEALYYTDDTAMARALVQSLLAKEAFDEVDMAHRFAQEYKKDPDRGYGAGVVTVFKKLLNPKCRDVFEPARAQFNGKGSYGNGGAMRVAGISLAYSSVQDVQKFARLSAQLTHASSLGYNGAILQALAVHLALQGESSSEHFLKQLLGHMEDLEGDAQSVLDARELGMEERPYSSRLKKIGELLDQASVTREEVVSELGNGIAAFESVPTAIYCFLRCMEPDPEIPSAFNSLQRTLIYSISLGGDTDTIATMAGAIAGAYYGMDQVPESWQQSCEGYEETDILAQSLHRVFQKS

LchARH3 [2] = target: T2, LchARH3 (Latimeria chalumnae, UniProt H3BCW1); experiment: biochemical; type: binding; settings: for TM / ΔTM: 100 μM metal salt; for TM: n = 6; for ΔTM: ΔTM = TM (salt) - TM (apo)
T2 construct: LchARH3 (GenBank: XP_005988572; aa residues 10-362); made in house; host or cells: E. coli Rosetta (DE3)
T2 sequence (H3BCW1 10-356 limits assumed): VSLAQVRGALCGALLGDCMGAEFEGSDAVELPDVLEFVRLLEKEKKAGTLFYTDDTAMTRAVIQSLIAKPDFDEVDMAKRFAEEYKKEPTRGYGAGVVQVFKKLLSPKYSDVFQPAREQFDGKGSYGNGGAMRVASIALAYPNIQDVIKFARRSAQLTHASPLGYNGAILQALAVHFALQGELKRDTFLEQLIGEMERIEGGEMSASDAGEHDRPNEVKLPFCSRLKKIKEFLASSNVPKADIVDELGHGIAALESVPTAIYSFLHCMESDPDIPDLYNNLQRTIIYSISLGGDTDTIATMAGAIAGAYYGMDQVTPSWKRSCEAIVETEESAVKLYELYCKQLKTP
Method: LchARH3 WT was purified as described above and dialysed against 50 mM TrisHCl (pH 8), 200 mM NaCl, 20 mM EDTA, 1 mM DTT and 5% (v/v) glycerol. EDTA was removed by dialysing twice against 50 mM TrisHCl (pH 8), 200 mM NaCl, 1 mM DTT and 5% (v/v) glycerol. Each dialysis step was carried out with a minimum 1:1,000 ratio of sample to buffer. Only samples with purity >90% (as assessed by SDS-PAGE) were used for subsequent DSF experiments.
Assays were performed essentially as described earlier ([Vivoli et al., 2014]). Briefly, 10 μM LchARH3 wt EDTA-treated, 10x SYPRO® Orange (ThermoFisher Scientific) and indicated amounts of metal salts in assay buffer (50 mM TrisHCl [pH 8], 200 mM NaCl and 1 mM DTT) were thermal denaturated in MicroAmp® Fast plates (Life Technologies) in a StepOne qPCR instrument (ThermoFisher Scientific). The initial temperature of 24°C was held for 2.5 min, followed by a ramp to 97.5°C at 0.5°C/45 sec and then 2 min pause at 98°C. Curves were fit using GraphPad Prism 6. For analysis recorded data were cropped two data points after recorded fluorescence signal maximum and the resulting curves fitted using the Boltzman equation F=BOTTOM+(TOP−BOTTOM)/1+e^(TM−T/SLOPE)
with TM, melting temperature; T, temperature; SLOPE, steepness of curve. For the inference of the binding constant the determined TM’s were plotted and analysed using a single binding site model: TM=BOTTOM+((TOP−BOTTOM)∗(1−(P−Kd−M+(P+M+Kd)^2∗(4∗P∗M)/2P))) with P, protein concentration; M, metal salt concentration; Kd dissociation constant.

hARH3 [3] = target: T1, hARH3; experiment: Enzyme kinetics and inhibition assay with fluorogenic substrate TFMU-ADPr; type: biochemical; settings: triplicate; for IC50: 20 μM TFMU-ADPr as substrate
Method: (§1) Reactions were performed as described in ([Drown et al., 2018]). Briefly, reactions were carried out in 384-well plates using 50 mM Na2HPO4 (pH 7.4), 10 mM MgCl2, 5 mM DTT and indicated amounts of TFMU-ADPr as substrate. After shaking for 5 s, fluorescence was recorded at 5 s intervals for 15 min on a Molecular Devices SpectraMax M3 microplate reader (reader settings: λEx 385 nm, λEm 502 nm, λcutoff 495 nm, 6 reads/well, low gain). Initial reaction rates were determined by fitting the linear portions of reaction progress curves. Initial rates were plotted against substrate concentration and fit to the Michaelis-Menton equation using a non-linear curve-fitting algorithm in GraphPad Prism 6.
(§2) For inhibitor studies enzymes and inhibitor were pre-incubated for 5 min at RT before addition of substrate. Percent inhibition was calculated with the no enzyme and no inhibitor reactions as positive and negative controls, respectively. Dose-response curves were fit using GraphPad Prism 6.

LchARH3 [4] = target: T2, LchARH3; type: biochemical; settings: for support of hydrolysis of Ser-ADPr and PAR by metal (in words): MgII-stripped enzyme, 100 μM metal salt; for inhibitory potential against ARH3 (in words): serine MARylated histone H3 peptide as substrate, 1-1,000 μM compound
Method: (§3) ARH3 activity assays were performed essentially as described ([Fontana et al., 2017]). Briefly, H3 peptide (aa 1-20, biotinylated) was modified by incubation with 0.5 μM PARP1, 1 μM HPF1 and activated DNA (Trevigen) in assay buffer (50 mM TrisHCl [pH 8], 200 mM NaCl, 2 mM MgCl2, 1 mM DTT, 10 μM NAD^+ and 1 μCi ^32P-NAD^+). Reactions were incubated for 30 min at 30°C and stopped by addition of 1 μM olaparib. Reaction were further incubated in presence of 1 μM hydrolase for 1 h at 30°C. Reactions were stopped by addition of LDS sample buffer (Life Technologies) and incubation at 95°C for 3 min. Samples were then analysed by SDS-PAGE, immunoblot and autoradiography. For inhibitor study the ARH3 was pre-incubated with indicated amount of inhibitor for 5 min at RT.

hARH3 [5] = target: T1, hARH3; experiment: De-modification of Ser-ADP-ribosyl H3 peptide and degradation of PAR (32P autoradiography); type: biochemical; settings: for support of hydrolysis of Ser-ADPr and PAR by metal (in words): MgII-stripped enzyme, 100 μM metal salt
Method: as §3

hARH1 [6] = target: T3, hARH1 (Homo sapiens, UniProt P54922); experiment: Enzyme kinetics and inhibition assay with fluorogenic substrate TFMU-ADPr; type: biochemical; settings: for IC50: 20 μM TFMU-ADPr as substrate, triplicate
T3 construct: made in house; host or cells: E. coli Rosetta (DE3)
T3 sequence (P54922 whole entry): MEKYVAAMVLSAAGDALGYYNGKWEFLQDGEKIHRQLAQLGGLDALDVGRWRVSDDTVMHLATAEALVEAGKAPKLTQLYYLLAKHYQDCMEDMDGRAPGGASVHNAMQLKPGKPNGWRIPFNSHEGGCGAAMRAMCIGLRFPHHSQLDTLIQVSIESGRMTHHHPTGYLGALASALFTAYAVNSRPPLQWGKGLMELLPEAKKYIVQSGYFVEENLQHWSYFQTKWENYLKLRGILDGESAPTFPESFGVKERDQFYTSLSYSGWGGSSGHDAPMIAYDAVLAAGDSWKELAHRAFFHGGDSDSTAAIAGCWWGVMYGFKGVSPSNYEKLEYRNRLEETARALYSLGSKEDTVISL
Method: as §1, §2

hARH1 [7] = target: T3, hARH1; experiment: Removal of Arg-ADP-ribosylation from HeLa cell extracts (32P autoradiography); type: biochemical; settings: arginine ADP-ribosylated whole cell lysate as substrate; 1-1,000 μM compound
Method: In vitro modification of proteins from HeLa cell extracts by mARTC2.2 recombinant protein was performed, with minor modifications, as described earlier ([Palazzo et al., 2016]). Briefly, cells were grown to confluence on two 10-cm dishes, washed thrice with 50 mM TrisHCl (pH 7.5) and 200 mM NaCl and lysed in 800 μL of 50 mM Tris-HCl pH 7.5, 150 mM NaCl, 0.5% Triton X-100, 0.2 mM DTT and 1 μM olaparib at 4°C supplemented with cOmplete™ EDTA-free protease inhibitor (Roche). The cell extract was clarified by centrifugation. 12 uL of extract per reaction were supplemented with 15 mM MgCl2, 1 μM mARTC2.2 and 1 μCi ^32P-NAD^+ and incubated for 15 min at 30°C. Lysates were further incubated in presence of hydrolases for 45 min at 30°C. Reactions were stopped by addition of LDS sample buffer (Life Technologies) and incubation at 95°C for 3 min. Samples were then analysed by SDS-PAGE and autoradiography. For inhibitor study the hARH1 was pre-incubated with indicated amount of inhibitor for 5 min at RT.

hARH3 [8] = target: T1, hARH3; parameters: method as in Drown et al., 2018; settings: in situ generation of Arg-ADPr; ref Drown et al., 2018; cited from earlier work
[9] = DSF, 16 metal salt dilutions, single-site ligand-binding model, triplicate ± SD, read-out: Kd
[10] = DSF, rounded, read-out: Kd of magnesium on its own

Structure (SMILES) | TM (hARH3 [1]) [°C] | ΔTM (hARH3 [1]) | TM (LchARH3 [2]) [°C] | ΔTM (LchARH3 [2]) | other results
[Cl-].[Cl-].[Zn+2] [ZnCl2, Zinc chloride] | 44.1 ± 0.07 | −2.6 ^d °C | 37.4 ± 0.25 | −2.8 ^d °C | 
[Cl][Cu][Cl] [CuCl2, Copper(II) chloride] | 40.5 ± 0.10 | −6.2 ^d °C | 39.0 ± 0.21 | −1.2 ^d °C | 
[Ca+2] [CaCl2, Calcium chloride dehydrate] | 50.1 ± 0.08 | 3.4 ^d °C | 44.4 ± 0.08 | 4.2 ^d °C | IC50 (hARH3 [3]): 13.7 µM; Kd (hARH3 [1]; [9]): 266 ± 42 µM; Kd (LchARH3 [2]; [9]): 431 ± 68 µM; inhibition of ARH3 by calcium (in words) (LchARH3 [4]; de-MARylation assay in presence of 1 mM MgCl2 or 1 mM MnCl2, 1-2,000 μM CaCl2): inhibitor of magnesium-, but not manganese-, supplemented ARH3
[Cl-].[Li+] [LiCl, Lithium chloride] | 46.6 ± 0.15 | −0.1 °C | 40.1 ± 0.16 | −0.1 °C | 
[Mg+2] [MgCl2, Magnesium chloride hexahydrate] | 46.7 ± 0.11 | 0.0 °C | 41.4 ± 0.17 | 1.3 ^d °C | Kd (hARH3 [1]; [9]): 5410 ± 322 µM; Kd (hARH3 [1]; [10]): ~5400 µM; Kd (LchARH3 [2]; [9]): 2300 ± 257 µM; Kd (LchARH3 [2]; [10]): ~2300 µM; support of hydrolysis of Ser-ADPr and PAR by metal (in words) (hARH3 [5]): able to support hydrolysis of Ser-ADPr and PAR; apparent concentration needed to restore activity (LchARH3 [4]; EDTA-treated LchARH3, 1-1000 µM MgCl2): ~50 µM; support of hydrolysis of Ser-ADPr and PAR by metal (in words) (LchARH3 [4]): able to support hydrolysis of Ser-ADPr and PAR
Nc1ncnc2c1ncn2C1OC(COP(=O)(O)OP(=O)(O)OCC2OC(O)C(O)C2O)C(O)C1O (centres unmarked) [ADPr, ADP-ribose] |  |  |  |  | IC50 (hARH1 [6]): 228 µM; IC50 (hARH3 [3]): 3.2 µM; Ki (hARH3 [3]; TFMU-ADPr substrate): 1.08 ± 0.08 µM; inhibitory potential against hARH1 (in words) (hARH1 [7]): only mild activity; inhibitory potential against ARH3 (in words) (hARH3 [5]; serine MARylated histone H3 peptide as substrate, 1-1,000 μM compound): inhibited; inhibitory potential against ARH3 (in words) (LchARH3 [4]): inhibited
O.O.O.O.O.O.[Cl][Cr]([Cl])[Cl] [CrCl3, Chromium(III) chloride hexahydrate] | 46.5 ± 0.04 | −0.3 °C | 40.1 ± 0.21 | −0.1 °C | 
Nc1ncnc2c1ncn2C1OC(COP(=O)(O)OP(=O)(O)OCC2CC(O)CN2)C(O)C1O (centres unmarked) [ADP-HPM] |  |  |  |  | IC50 (hARH1 [6]): 164 µM; inhibitory potential against hARH1 (in words) (hARH1 [7]): only minor inhibitor potential; inhibitory potential against ARH3 (in words) (LchARH3 [4]): only minor inhibitor potential
Nc1ncnc2c1ncn2[C@@H]1O[C@H](CO[P@](=O)(O)O[P@@](=O)(O)OC[C@H]2NC[C@H](O)[C@@H]2O)[C@@H](O)[C@H]1O [ADP-HPD, adenosine diphosphate (hydroxymethyl)pyrrolidinediol] |  |  |  |  | inhibition of hARH1 (in words) (hARH1 [6]; IC50 conditions, 20 μM TFMU-ADPr): no inhibition; inhibitory potential against hARH1 (in words) (hARH1 [7]): only mild activity; inhibitory potential against ARH3 (in words) (LchARH3 [4]): inhibited
O.O.O.O.O.O.[Cl][Ni][Cl] [NiCl2, Nickel(II) chloride hexahydrate] | 46.4 ± 0.09 | −0.3 °C | 40.7 ± 0.22 | 0.5 °C | 
[Mn+2] [MnCl2, Manganese(II) chloride tetrahydrate] | 52.6 ± 0.09 |  | 51.5 ± 0.23 |  | Kd (hARH3 [1]): 208 ± 12 µM; Kd (LchARH3 [2]): 175 ± 24 µM; support of hydrolysis of Ser-ADPr and PAR by metal (in words) (hARH3 [5]): able to support hydrolysis of Ser-ADPr and PAR; support of hydrolysis of Ser-ADPr and PAR by metal (in words) (LchARH3 [4]): able to support hydrolysis of Ser-ADPr and PAR
NC(=NCCC[C@H](N)C(=O)O)N[C@H]1O[C@H](COP(=O)(O)OP(=O)(O)OC[C@H]2O[C@@H](n3cnc4c(N)ncnc43)[C@H](O)[C@@H]2O)[C@@H](O)[C@H]1O [Arg-ADPr, arginine-ADP-ribose] |  |  |  |  | inhibition of hARH3 (in words) (hARH3 [8]): potent, cellular inhibitor of hARH3
O.O.O.O.O.O.[Cl-].[Cl-].[Co+2] [CoCl2, Cobalt(II) chloride hexahydrate] | 46.7 ± 0.09 | 0.0 °C | 39.6 ± 0.28 | −0.6 °C | 

From article PMC6309922, “(ADP-ribosyl)hydrolases: Structural Basis for Differential Substrate Recognition and Inhibition” (Cell Chemical Biology, 2018)
